Values after ≈ are worked out from the molar mass of the structure shown. Values joined by “and” are separate entries in the source; they are usually repeats but may differ in a detail not shown here. Equal entries are not always repeated. Where two headings read alike, the source gives them in different places.
Key:
[1] = tested on: Mtb H37Rv; test: microbe, parasite or virus in culture; format: cell-based; settings: Mycobacterium tuberculosis
[2] = tested on: Mtb; design: method as in PMID 31367508; settings: lead diarylpyrazole derivatives, Fig. 2; cited from earlier work
[3] = biological target: CYP121A1; settings: lead diarylpyrazole derivatives, Fig. 2; cited from earlier work
[4] = biological target: T1, Mtb CYP121A1 (Mycobacterium tuberculosis, UniProt P9WPP7); test: biochemical; format: binding; settings: for Kd: 1 μM protein, 0 to 150 μM compound, plate reader, triplicate; for Soret shift: UV-vis absorbance, Soret band shift on ligand binding; for Spectral response in the UV-vis assay: compared with the imidazole derivatives
T1 construct: made in house

[5] = tested on: Mtb H37Rv; design: method as in PMID 29185746; settings: previously prepared methoxy derivatives; cited from earlier work
[6] = Mtb H37Rv, SPOTi, five weeks at 37 °C, average of two independent experiments, read-out: MIC90

T1 sequence (P9WPP7 whole entry): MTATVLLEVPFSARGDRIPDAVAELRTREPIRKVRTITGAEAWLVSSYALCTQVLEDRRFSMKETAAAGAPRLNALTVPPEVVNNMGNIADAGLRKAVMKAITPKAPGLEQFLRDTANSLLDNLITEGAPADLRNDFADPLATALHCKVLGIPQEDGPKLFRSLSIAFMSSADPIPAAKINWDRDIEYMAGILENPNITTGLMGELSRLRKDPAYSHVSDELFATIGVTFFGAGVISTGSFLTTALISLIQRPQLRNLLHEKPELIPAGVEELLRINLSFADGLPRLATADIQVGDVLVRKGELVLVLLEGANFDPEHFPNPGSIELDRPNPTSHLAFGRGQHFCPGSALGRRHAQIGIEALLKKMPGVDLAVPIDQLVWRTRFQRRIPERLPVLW

SMILES	melting point [°C]	MIC90 [1, 6]	Kd [4]	Soret shift [4] [nm]	also measured
CCOc1ccc(-c2nn(-c3ccc(F)cc3)cc2Cn2cncn2)cc1 [12c, 1-((3-(4-Ethoxyphenyl)-1-(4-fluorophenyl)-1H-pyrazol-4-yl)methyl)-1H-1,2,4-triazole]	140 to 142	25.6 µg/mL and 70.5 µM	–	–	–
CCc1ccc(-c2nn(-c3ccccc3)cc2Cn2ccnc2)cc1 [R = Et]	–	–	–	–	MIC [2]: 1.562 µg/mL (≈ 4.76 µM); Kd [3]: 18.3 ± 3.4 µM
CCCOc1ccc(-c2nn(-c3ccc(F)cc3)cc2Cn2ccnc2)cc1 [11e, 4-((1H-Imidazol-1-yl)methyl)-1-(4-fluorophenyl)-3-(4-propoxyphenyl)-1H-pyrazole]	120 to 122	6 µg/mL and 15.9 µM	22.3 ± 4.2 µM	417 to 420	–
CCOc1ccc(-c2nn(-c3ccc(Cl)cc3)cc2Cn2ccnc2)cc1 [11d, 4-((1H-Imidazol-1-yl)methyl)-1-(4-chlorophenyl)-3-(4-ethoxyphenyl)-1H-pyrazole]	124 to 126	5 µg/mL and 13.3 µM	18.8 ± 10.2 µM	417 to 420	–
CC(C)c1ccc(-c2nn(-c3ccccc3)cc2Cn2ccnc2)cc1 [R = iPr]	–	–	–	–	MIC [2]: 1.562 µg/mL (≈ 4.56 µM); Kd [3]: 22.5 ± 3.5 µM
CC(C)Oc1ccc(-c2nn(-c3ccc(F)cc3)cc2Cn2ccnc2)cc1 [11g, 4-((1H-Imidazol-1-yl)methyl)-1-(4-fluorophenyl)-3-(4-isopropoxyphenyl)-1H-pyrazole]	96 to 98	4.3 µg/mL and 11.4 µM	38.5 ± 8.7 µM	417 to 419	–
CC(C)Oc1ccc(-c2nn(-c3ccc(Cl)cc3)cc2Cn2cncn2)cc1 [12h, 1-((1-(4-Chlorophenyl)-3-(4-isopropoxyphenyl)-1H-pyrazol-4-yl)methyl)-1H-1,2,4-triazole]	98 to 100	25.6 µg/mL and 65.1 µM	–	–	–
CCCOc1ccc(-c2nn(-c3ccc(Cl)cc3)cc2Cn2ccnc2)cc1 [11f, 4-((1H-Imidazol-1-yl)methyl)-1-(4-chlorophenyl)-3-(4-propoxyphenyl)-1H-pyrazole]	90 to 92	4 µg/mL and 10.1 µM	11.7 µM	417 to 419	Binding type from difference spectra (type I / type II) ([4]; UV-vis binding difference spectra): type II
COc1ccc(-c2nn(-c3ccccc3)cc2Cn2ccnc2)cc1 [P1]	–	–	–	–	MIC90 [5]: 25 µg/mL (≈ 75.7 µM)
CCOc1ccc(-c2nn(-c3ccc(Cl)cc3)cc2Cn2cncn2)cc1 [12d, 1-((1-(4-Chlorophenyl)-3-(4-ethoxyphenyl)-1H-pyrazol-4-yl)methyl)-1H-1,2,4-triazole]	122 to 124	6.4 µg/mL and 16.8 µM	–	–	Spectral response in the UV-vis assay [4]: weak spectral response
COc1ccc(-c2nn(-c3ccc(Cl)cc3)cc2Cn2ccnc2)cc1 [11b, 4-((1H-Imidazol-1-yl)methyl)-1-(4-chlorophenyl)-3-(4-methoxyphenyl)-1H-pyrazole]	136 to 138	6 µg/mL and 16.5 µM	–	–	–
CCOc1ccc(-c2nn(-c3ccc(F)cc3)cc2Cn2ccnc2)cc1 [11c, 4-((1H-Imidazol-1-yl)methyl)-3-(4-ethoxyphenyl)-1-(4-fluorophenyl)-1H-pyrazole]	118 to 120	12 µg/mL and 33.2 µM	54 ± 5.2 µM	417 to 422	–
CC(C)Oc1ccc(-c2nn(-c3ccc(Cl)cc3)cc2Cn2ccnc2)cc1 [11h, 4-((1H-Imidazol-1-yl)methyl)-1-(4-chlorophenyl)-3-(4-isopropoxyphenyl)-1H-pyrazole]	98 to 100	4.4 µg/mL and 11.9 µM	17.7 µM	417 to 419	–
COc1ccc(-c2nn(-c3ccc(F)cc3)cc2Cn2ccnc2)cc1 [11a, 4-((1H-Imidazol-1-yl)methyl)-1-(4-fluorophenyl)-3-(4-methoxyphenyl)-1H-pyrazole]	150 to 152	4.3 µg/mL and 12.3 µM	65 ± 16.6 µM	417 to 421	–
COc1ccc(-c2nn(-c3ccc(F)cc3)cc2Cn2cncn2)cc1 [12a, 1-((1-(4-Fluorophenyl)-3-(4-methoxyphenyl)-1H-pyrazol-4-yl)methyl)-1H-1,2,4-triazole]	150 to 152	12.8 µg/mL and 36.7 µM	–	–	–
CC(C)Oc1ccc(-c2nn(-c3ccc(F)cc3)cc2Cn2cncn2)cc1 [12g, 1-((1-(4-Fluorophenyl)-3-(4-isopropoxyphenyl)-1H-pyrazol-4-yl)methyl)-1H-1,2,4-triazole]	118 to 120	20.9 µg/mL and 55.5 µM	–	–	–
CCCOc1ccc(-c2nn(-c3ccc(Cl)cc3)cc2Cn2cncn2)cc1 [12f, 1-((1-(4-Chlorophenyl)-3-(4-propoxyphenyl)-1H-pyrazol-4-yl)methyl)-1H-1,2,4-triazole]	114 to 116	6.4 µg/mL and 16.2 µM	–	–	–
NNC(=O)c1ccncc1 [Isoniazid, reference compound]	–	0.2 µg/mL and 1.8 µM	–	–	–
CCCc1ccc(-c2nn(-c3ccccc3)cc2Cn2ccnc2)cc1 [R = Pr]	–	–	–	–	MIC [2]: 0.78 µg/mL and 0.781 µg/mL; Kd [3]: 53.7 ± 5.9 µM
CO[C@H]1/C=C/O[C@@]2(C)Oc3c(C)c(O)c4c(O)c(c(/C=N/N5CCN(C)CC5)c(O)c4c3C2=O)NC(=O)/C(C)=C\C=C\[C@H](C)[C@H](O)[C@@H](C)[C@@H](O)[C@@H](C)[C@H](OC(C)=O)[C@@H]1C [Rifampicin, reference compound]	–	0.2 µg/mL and 0.3 µM	–	–	–
COc1ccc(-c2nn(-c3ccccc3)cc2Cn2cncn2)cc1 [P2]	–	–	–	–	MIC90 [5]: 25 µg/mL (≈ 75.4 µM)
COc1ccc(-c2nn(-c3ccc(Cl)cc3)cc2Cn2cncn2)cc1 [12b, 1-((1-(4-Chlorophenyl)-3-(4-methoxyphenyl)-1H-pyrazol-4-yl)methyl)-1H-1,2,4-triazole]	124 to 126	4.4 µg/mL and 11.9 µM	5.13 µM and 5.1 µM	417 to 417	Spectral response in the UV-vis assay [4]: weak spectral response
NC[C@H]1O[C@H](O[C@H]2[C@H](O)[C@@H](O[C@H]3O[C@H](CO)[C@@H](O)[C@H](N)[C@H]3O)[C@H](N)C[C@@H]2N)[C@H](O)[C@@H](O)[C@@H]1O [Kanamycin, reference compound]	–	–	–	–	MIC90 [1]: 7.8 µg/mL and 16.1 µM
CCCOc1ccc(-c2nn(-c3ccc(F)cc3)cc2Cn2cncn2)cc1 [12e, 1-((1-(4-Fluorophenyl)-3-(4-propoxyphenyl)-1H-pyrazol-4-yl)methyl)-1H-1,2,4-triazole]	120 to 122	20.9 µg/mL and 55.5 µM	–	–	–
